Measured values taken from paper PMC5218480 (PLoS ONE, 2017).

Tested on: MV-4-11 cells
Test: Gene expression microarray analysis (Affymetrix PrimeView) and GSEA
Format: cell-based, human
Set-up: RFU PODN (11730768_x_at) / Fold change /veh PODN (11730768_x_at) / RFU LINC00158 (11744669_a_at) / Fold change /veh LINC00158 (11744669_a_at) / RFU DUSP10 (11751237_a_at) / Fold change /veh DUSP10 (11751237_a_at) / RFU ID3 (11757404_x_at) / Fold change /veh ID3 (11757404_x_at) / RFU PLEKHG5 (11737974_s_at) / Fold change /veh PLEKHG5 (11737974_s_at) / RFU LRRC4B (11730491_at) / Fold change /veh LRRC4B (11730491_at) / RFU GIMAP4 (11747438_a_at) / Fold change /veh GIMAP4 (11747438_a_at) / RFU KRT8 (11758183_x_at) / Fold change /veh KRT8 (11758183_x_at) / RFU CNN1 (11734310_a_at) / Fold change /veh CNN1 (11734310_a_at) / RFU VPS37D (11726825_at) / Fold change /veh VPS37D (11726825_at) / RFU C10orf10 (11716522_x_at) / Fold change /veh C10orf10 (11716522_x_at) / RFU KIR2DL2 /// KIR2DL4 /// KIR2DL5A /// KIR2DL5B /// KIR2DS1 /// KIR2DS2 /// KIR2DS3 /// KIR2DS4 /// KIR3DL3 /// KIR3DL3 /// KIR3DS1 (11738374_at) / Fold change /veh KIR2DL2 /// KIR2DL4 /// KIR2DL5A /// KIR2DL5B /// KIR2DS1 /// KIR2DS2 /// KIR2DS3 /// KIR2DS4 /// KIR3DL3 /// KIR3DL3 /// KIR3DS1 (11738374_at) / RFU C1QL1 (11718748_at) / Fold change /veh C1QL1 (11718748_at) / RFU TMPRSS4 (11747572_a_at) / Fold change /veh TMPRSS4 (11747572_a_at) / RFU HAMP (11756126_x_at) / Fold change /veh HAMP (11756126_x_at) / RFU RNFT2 (11725882_a_at) / Fold change /veh RNFT2 (11725882_a_at) / RFU NR4A2 (11747474_a_at) / Fold change /veh NR4A2 (11747474_a_at) / RFU ABCC12 (11746883_a_at) / Fold change /veh ABCC12 (11746883_a_at) / RFU TMEM136 (11760407_x_at) / Fold change /veh TMEM136 (11760407_x_at) / RFU CLDN22 /// WWC2 (11732394_at) / Fold change /veh CLDN22 /// WWC2 (11732394_at) / RFU HLA-DPB1 (11760878_x_at) / Fold change /veh HLA-DPB1 (11760878_x_at) / RFU SPINT1 (11716480_a_at) / Fold change /veh SPINT1 (11716480_a_at) / RFU GAP43 (11754022_s_at) / Fold change /veh GAP43 (11754022_s_at) / RFU A4GNT (11735810_at) / Fold change /veh A4GNT (11735810_at) / RFU PRB3 (11715151_x_at) / Fold change /veh PRB3 (11715151_x_at) / RFU TUBB4B (11761932_at) / Fold change /veh TUBB4B (11761932_at) / RFU CAPN14 (11732068_a_at) / Fold change /veh CAPN14 (11732068_a_at) / RFU TMCC2 (11721928_a_at) / Fold change /veh TMCC2 (11721928_a_at) / RFU IRGQ (11745062_a_at) / Fold change /veh IRGQ (11745062_a_at) / RFU FAM174B (11720279_a_at) / Fold change /veh FAM174B (11720279_a_at) / RFU TMPRSS4 (11748680_a_at) / Fold change /veh TMPRSS4 (11748680_a_at) / RFU FAM212B (11763350_a_at) / Fold change /veh FAM212B (11763350_a_at) / RFU PLEKHG5 (11743358_a_at) / Fold change /veh PLEKHG5 (11743358_a_at) / RFU ZSCAN30 (11745921_a_at) / Fold change /veh ZSCAN30 (11745921_a_at) / RFU CMKLR1 (11741424_a_at) / Fold change /veh CMKLR1 (11741424_a_at) / RFU LOC101060620 /// MAPK8IP1 (11723275_at) / Fold change /veh LOC101060620 /// MAPK8IP1 (11723275_at) / RFU SPTSSB (11747773_x_at) / Fold change /veh SPTSSB (11747773_x_at) / RFU PRSS12 (11739890_at) / Fold change /veh PRSS12 (11739890_at) / RFU BIN1 (11741810_x_at) / Fold change /veh BIN1 (11741810_x_at) / RFU WNT11 (11732464_a_at) / Fold change /veh WNT11 (11732464_a_at) / RFU C10orf10 (11716521_a_at) / Fold change /veh C10orf10 (11716521_a_at) / RFU C5orf56 (11738089_at) / Fold change /veh C5orf56 (11738089_at) / RFU CYB561 (11721691_x_at) / Fold change /veh CYB561 (11721691_x_at) / RFU ANKRD19P (11752326_a_at) / Fold change /veh ANKRD19P (11752326_a_at) / RFU OR2T12 /// OR2T33 /// OR2T8 (11738714_s_at) / Fold change /veh OR2T12 /// OR2T33 /// OR2T8 (11738714_s_at) / RFU VCAN (11748164_a_at) / Fold change /veh VCAN (11748164_a_at) / RFU JSRP1 (11732532_at) / Fold change /veh JSRP1 (11732532_at) / RFU KRTAP10-11 (11738290_x_at) / Fold change /veh KRTAP10-11 (11738290_x_at) / RFU MYO3A (11730013_a_at) / Fold change /veh MYO3A (11730013_a_at) / RFU EBF3 (11725865_a_at) / Fold change /veh EBF3 (11725865_a_at) / RFU CAMK2N1 (11719241_x_at) / Fold change /veh CAMK2N1 (11719241_x_at) / RFU C5orf56 (11738088_a_at) / Fold change /veh C5orf56 (11738088_a_at) / RFU OLFML3 (11715873_a_at) / Fold change /veh OLFML3 (11715873_a_at) / RFU LOC100653217 /// NTM (11731650_a_at) / Fold change /veh LOC100653217 /// NTM (11731650_a_at) / RFU MAPK11 (11762145_a_at) / Fold change /veh MAPK11 (11762145_a_at) / RFU FIZ1 (11724087_x_at) / Fold change /veh FIZ1 (11724087_x_at) / RFU OASL (11726364_x_at) / Fold change /veh OASL (11726364_x_at) / RFU SOX15 (11748057_x_at) / Fold change /veh SOX15 (11748057_x_at) / RFU CD79A (11719716_a_at) / Fold change /veh CD79A (11719716_a_at) / RFU HIST1H1D (11736915_at) / Fold change /veh HIST1H1D (11736915_at) / RFU CASKIN2 (11723855_a_at) / Fold change /veh CASKIN2 (11723855_a_at) / RFU LOC730098 (11760151_x_at) / Fold change /veh LOC730098 (11760151_x_at) / RFU OR4N2 (11742367_at) / Fold change /veh OR4N2 (11742367_at) / RFU PRRT2 (11749266_a_at) / Fold change /veh PRRT2 (11749266_a_at) / RFU SNX32 (11753110_a_at) / Fold change /veh SNX32 (11753110_a_at) / RFU CDHR5 (11726645_a_at) / Fold change /veh CDHR5 (11726645_a_at) / RFU RCAN1 (11760418_a_at) / Fold change /veh RCAN1 (11760418_a_at) / RFU FAM167A (11723789_a_at) / Fold change /veh FAM167A (11723789_a_at) / RFU FAM26E (11764081_at) / Fold change /veh FAM26E (11764081_at) / RFU ISYNA1 (11749810_s_at) / Fold change /veh ISYNA1 (11749810_s_at) / RFU ACY1 (11761880_at) / Fold change /veh ACY1 (11761880_at) / RFU 11764098_at / Fold change /veh 11764098_at / RFU SAMD14 (11745864_x_at) / Fold change /veh SAMD14 (11745864_x_at) / RFU NPB (11741838_a_at) / Fold change /veh NPB (11741838_a_at) / RFU TMPRSS6 (11731388_a_at) / Fold change /veh TMPRSS6 (11731388_a_at) / RFU KRTAP10-2 (11738614_at) / Fold change /veh KRTAP10-2 (11738614_at) / RFU ARHGAP8 /// PRR5-ARHGAP8 (11727945_x_at) / Fold change /veh ARHGAP8 /// PRR5-ARHGAP8 (11727945_x_at) / RFU KRTAP5-7 /// NADSYN1 (11734609_at) / Fold change /veh KRTAP5-7 /// NADSYN1 (11734609_at) / RFU RASL12 (11751679_a_at) / Fold change /veh RASL12 (11751679_a_at) / RFU CDKN2B (11736163_a_at) / Fold change /veh CDKN2B (11736163_a_at) / RFU PRF1 (11729649_at) / Fold change /veh PRF1 (11729649_at) / RFU, ZNF638 /// ZNF638-IT1 / Fold change vs veh, ZNF638 /// ZNF638-IT1 / RFU, PANK3 / Fold change vs veh, PANK3 / RFU, SH3YL1 / Fold change vs veh, SH3YL1 / RFU, ZEB2 / Fold change vs veh, ZEB2 / RFU, NRIP1 / Fold change vs veh, NRIP1 / RFU, PTTG1IP / Fold change vs veh, PTTG1IP / RFU, CAPN2 / Fold change vs veh, CAPN2 / RFU, MED14 / Fold change vs veh, MED14 / RFU, SNORA58 / Fold change vs veh, SNORA58 / RFU, C1orf63 / Fold change vs veh, C1orf63 / RFU, LRRFIP1 / Fold change vs veh, LRRFIP1 / RFU, NDUFAF7 / Fold change vs veh, NDUFAF7 / RFU, SLC12A2 / Fold change vs veh, SLC12A2 / RFU, IBTK / Fold change vs veh, IBTK / RFU, ESF1 / Fold change vs veh, ESF1 / Fold change vs veh, TMEM50B / RFU, TAOK1 / Fold change vs veh, TAOK1 / RFU, ACBD3 / Fold change vs veh, ACBD3 / RFU, TMA16 / Fold change vs veh, TMA16 / RFU, RWDD3 / Fold change vs veh, RWDD3 / RFU, BCAT1 / Fold change vs veh, BCAT1 / RFU, EDEM3 / Fold change vs veh, EDEM3 / RFU, TMEM33 / Fold change vs veh, TMEM33 / RFU, WDR75 / Fold change vs veh, WDR75 / RFU, AHCTF1 / Fold change vs veh, AHCTF1 / RFU, TFRC / Fold change vs veh, TFRC / RFU, ZDHHC17 / Fold change vs veh, ZDHHC17 / RFU, NOM1 / Fold change vs veh, NOM1 / RFU, ARL8B / Fold change vs veh, ARL8B / RFU, ZBTB11 / Fold change vs veh, ZBTB11 / RFU, TAMM41 / Fold change vs veh, TAMM41 / RFU, KIAA1704 /// LOC100996395 / Fold change vs veh, KIAA1704 /// LOC100996395 / RFU, ING1 / Fold change vs veh, ING1 / RFU, TRMT61B / Fold change vs veh, TRMT61B / RFU, FUBP3 / Fold change vs veh, FUBP3 / RFU, TP53 / Fold change vs veh, TP53 / RFU, TNKS2 / Fold change vs veh, TNKS2 / RFU, ZFP14 / Fold change vs veh, ZFP14 / RFU, ACTR2 / Fold change vs veh, ACTR2 / RFU, PPP3R1 / Fold change vs veh, PPP3R1 / RFU, PIK3R1 / Fold change vs veh, PIK3R1 / RFU, HNRNPA1 / Fold change vs veh, HNRNPA1 / RFU, RNF170 / Fold change vs veh, RNF170 / RFU, ZNF28 / Fold change vs veh, ZNF28 / RFU, RNGTT / Fold change vs veh, RNGTT / RFU, OGT / Fold change vs veh, OGT / RFU, BRD1 / Fold change vs veh, BRD1 / RFU, MARS / Fold change vs veh, MARS / RFU, ZNF655 / Fold change vs veh, ZNF655 / RFU, FAHD1 / Fold change vs veh, FAHD1 / RFU, BDP1 / Fold change vs veh, BDP1 / RFU, LRRCC1 / Fold change vs veh, LRRCC1 / RFU, ARID1A / Fold change vs veh, ARID1A / RFU, ZNF146 / Fold change vs veh, ZNF146 / RFU, ZNF330 / Fold change vs veh, ZNF330 / RFU, GPN3 / Fold change vs veh, GPN3 / RFU, C9orf123 / Fold change vs veh, C9orf123 / RFU, N4BP2L2 / Fold change vs veh, N4BP2L2 / RFU, ARFIP1 / Fold change vs veh, ARFIP1 / RFU, FAM179B / Fold change vs veh, FAM179B / RFU, BCL10 / Fold change vs veh, BCL10 / RFU, UHRF1BP1L / Fold change vs veh, UHRF1BP1L / RFU, BET1 / Fold change vs veh, BET1 / RFU, CNOT2 / Fold change vs veh, CNOT2 / RFU, ZNF268 / Fold change vs veh, ZNF268 / Fold change vs veh, ZNF507 / RFU, DGCR2 / Fold change vs veh, DGCR2 / RFU, WDSUB1 / Fold change vs veh, WDSUB1 / Fold change vs veh, HSP90B1 /// MIR3652 / RFU, ADSS / Fold change vs veh, ADSS / RFU, GK / Fold change vs veh, GK / RFU, ZNF148 / Fold change vs veh, ZNF148 / RFU, TAF9 / Fold change vs veh, TAF9 / RFU, SLC1A5 / Fold change vs veh, SLC1A5 / RFU, SLMO2 / Fold change vs veh, SLMO2 / RFU, ABCC4 / Fold change vs veh, ABCC4 / RFU, LOC101060439 /// RAP1B / Fold change vs veh, LOC101060439 /// RAP1B / RFU, RFX7 / Fold change vs veh, RFX7 / RFU, GTPBP10 / Fold change vs veh, GTPBP10 / RFU, CNEP1R1 / Fold change vs veh, CNEP1R1 / RFU, BIVM-ERCC5 /// ERCC5 / Fold change vs veh, BIVM-ERCC5 /// ERCC5 / RFU, ILF3 / Fold change vs veh, ILF3 / RFU 11762660_at / Fold change /veh 11762660_at / RFU VCAN (11757783_s_at) / Fold change /veh VCAN (11757783_s_at) / RFU DDX43 (11728927_at) / Fold change /veh DDX43 (11728927_at) / RFU KRT8 (11758188_x_at) / Fold change /veh KRT8 (11758188_x_at) / RFU NKD1 (11759106_at) / Fold change /veh NKD1 (11759106_at) / RFU SRD5A1 (11742802_a_at) / Fold change /veh SRD5A1 (11742802_a_at) / RFU TPSAB1 /// TPSB2 (11721975_s_at) / Fold change /veh TPSAB1 /// TPSB2 (11721975_s_at) / RFU GSTM3 (11746129_a_at) / Fold change /veh GSTM3 (11746129_a_at) / RFU IL23R (11737362_x_at) / Fold change /veh IL23R (11737362_x_at) / RFU TMEM51 (11727254_a_at) / Fold change /veh TMEM51 (11727254_a_at) / RFU PIWIL2 (11732686_x_at) / Fold change /veh PIWIL2 (11732686_x_at) / RFU ORM1 (11744905_x_at) / Fold change /veh ORM1 (11744905_x_at) / RFU CCDC152 (11743942_at) / Fold change /veh CCDC152 (11743942_at) / RFU ECM1 (11717891_a_at) / Fold change /veh ECM1 (11717891_a_at) / RFU IL23R (11748794_a_at) / Fold change /veh IL23R (11748794_a_at) / RFU TNFAIP8L3 (11732012_x_at) / Fold change /veh TNFAIP8L3 (11732012_x_at) / RFU MBOAT4 (11741988_at) / Fold change /veh MBOAT4 (11741988_at) / RFU 11764193_at / Fold change /veh 11764193_at / RFU TMEM53 (11763286_at) / Fold change /veh TMEM53 (11763286_at) / RFU MAGEB2 (11727129_at) / Fold change /veh MAGEB2 (11727129_at) / RFU TMEM200A (11744735_a_at) / Fold change /veh TMEM200A (11744735_a_at) / RFU CCDC152 (11751479_a_at) / Fold change /veh CCDC152 (11751479_a_at) / RFU FAM211A (11726209_a_at) / Fold change /veh FAM211A (11726209_a_at) / RFU RGS16 (11746705_a_at) / Fold change /veh RGS16 (11746705_a_at) / RFU VCAN (11755009_s_at) / Fold change /veh VCAN (11755009_s_at) / RFU RHOB (11743442_s_at) / Fold change /veh RHOB (11743442_s_at) / RFU RGS16 (11720943_a_at) / Fold change /veh RGS16 (11720943_a_at) / RFU RGS16 (11720944_at) / Fold change /veh RGS16 (11720944_at) / RFU, VPS4B / Fold change vs veh, VPS4B / RFU, CREB1 / Fold change vs veh, CREB1 / RFU, DNAJC13 / Fold change vs veh, DNAJC13 / RFU, GNAQ / Fold change vs veh, GNAQ / RFU, CDK5R1 / Fold change vs veh, CDK5R1 / RFU, ZRANB3 / Fold change vs veh, ZRANB3 / RFU, CUL4A / Fold change vs veh, CUL4A / RFU, CCNY / Fold change vs veh, CCNY / RFU, UFL1 / Fold change vs veh, UFL1 / RFU, COG3 / Fold change vs veh, COG3 / RFU, DIAPH2 / Fold change vs veh, DIAPH2 / RFU, SKA2 / Fold change vs veh, SKA2 / RFU, AFF3 / Fold change vs veh, AFF3 / RFU, LMF1 / Fold change vs veh, LMF1 / RFU, IPO11 / Fold change vs veh, IPO11 / RFU, DFFB / Fold change vs veh, DFFB / RFU, FOXP1 / Fold change vs veh, FOXP1 / RFU, CARD8 / Fold change vs veh, CARD8 / RFU, STRN3 / Fold change vs veh, STRN3 / RFU, ADK / Fold change vs veh, ADK / RFU, RASSF2 / Fold change vs veh, RASSF2 / RFU, WIPF1 / Fold change vs veh, WIPF1 / RFU, LARP1B / Fold change vs veh, LARP1B / RFU, RASA1 / Fold change vs veh, RASA1 / RFU, RB1 / Fold change vs veh, RB1 / RFU, PPFIA1 / Fold change vs veh, PPFIA1 / RFU, MAT2A / Fold change vs veh, MAT2A / RFU, CCT5 / Fold change vs veh, CCT5 / RFU, WDR92 / Fold change vs veh, WDR92 / RFU, CUX1 / Fold change vs veh, CUX1 / RFU, TTC7A / Fold change vs veh, TTC7A / RFU, TMEM135 / Fold change vs veh, TMEM135 / RFU, DEPTOR / Fold change vs veh, DEPTOR / RFU, CPM / Fold change vs veh, CPM / RFU, DNAJB6 / Fold change vs veh, DNAJB6 / RFU, CACNA2D3 / Fold change vs veh, CACNA2D3 / RFU, DTX4 / Fold change vs veh, DTX4 / RFU, TFCP2 / Fold change vs veh, TFCP2 / RFU, GMCL1 /// GMCL1P1 / Fold change vs veh, GMCL1 /// GMCL1P1 / RFU, AEBP2 / Fold change vs veh, AEBP2 / RFU, SNHG1 /// SNORD22 /// SNORD25 /// SNORD26 /// SNORD27 /// SNORD28 /// SNORD29 /// SNORD31 / Fold change vs veh, SNHG1 /// SNORD22 /// SNORD25 /// SNORD26 /// SNORD27 /// SNORD28 /// SNORD29 /// SNORD31 / Fold change (Aza/veh), C12orf56 (ProbeSet 11735607_a_at) / Fold change (ACY-1035/veh), C12orf56 (ProbeSet 11735607_a_at) / Fold change (Aza/veh), FGFR1OP (ProbeSet 11751329_s_at) / Fold change (ACY-1035/veh), FGFR1OP (ProbeSet 11751329_s_at) / Fold change (Aza/veh), VPS36 (ProbeSet 11739960_a_at) / Fold change (ACY-1035/veh), VPS36 (ProbeSet 11739960_a_at) / RFU SYPL1 (11715823_x_at) / Fold change /veh SYPL1 (11715823_x_at) / RFU IGFBP7 (11715501_s_at) / Fold change /veh IGFBP7 (11715501_s_at) / RFU REEP3 (11722064_at) / Fold change /veh REEP3 (11722064_at) / RFU IGLL1 (11728026_x_at) / Fold change /veh IGLL1 (11728026_x_at): dose or concentration left out as unconfirmed
Conditions: MV-4-11 cells, 48 hours

Nc1ncn([C@@H]2O[C@H](CO)[C@@H](O)[C@H]2O)c(=O)n1 [azacitidine]
Fold change /veh PODN (11730768_x_at): 1.12
